Reference: patent publication US10792289B2 (Horizon Orphan LLC, priority 2009, dated 2020)

Test system: S. aureus
Test: Phase 2 study: presumptive S. aureus density in sputum
Type: in vivo, human
Description: The following dosage regimens (as nebulizer loaded doses) were evaluated: 120 mg QD (daily); 240 mg QD (daily); and 240 mg BID (twice daily).
Patients were assessed on Day 1, 7, 14, and 28, and then up to 28 days after completion of study drug, namely, Days 42 and 56. The end of the study was defined as the last visit of the last patient.

[1] = EE population, Combined 240 mg QD and BID
[2] = EE population, Combined Levofloxacin
[3] = Table 21 (EE population), 120 mg QD
[4] = Table 21 (EE population), 240 mg BID
[5] = Table 21 (EE population), 240 mg QD
[6] = Table 21 (EE population), Combined 240 mg QD and BID
[7] = Table 21 (EE population), Combined Levofloxacin

C[C@H]1COc2c(N3CCN(C)CC3)c(F)cc3c(=O)c(C(=O)O)cn1c23 [Levofloxacin, levofloxacin]
presumptive S. aureus density, Change from Baseline to Day 7, Mean (EE population, 120 mg QD): −1.19 log10 CFU/g sputum | presumptive S. aureus density, Day 1, Mean (EE population, 120 mg QD): 5.72 log10 CFU/g sputum | presumptive S. aureus density, Day 7, Mean (EE population, 120 mg QD): 4.53 log10 CFU/g sputum | presumptive S. aureus density, Day 14, Mean (EE population, 120 mg QD): 5.30 log10 CFU/g sputum | presumptive S. aureus density, Day 28, Mean (EE population, 120 mg QD): 5.31 log10 CFU/g sputum | presumptive S. aureus density, Change from Baseline to Day 28, Mean (EE population, 120 mg QD, Day 14): −0.42 log10 CFU/g sputum | presumptive S. aureus density, Change from Baseline to Day 28, Mean (EE population, 120 mg QD, Day 28): −0.41 log10 CFU/g sputum | presumptive S. aureus density, Change from Baseline to Day 7, Mean (EE population, 240 mg BID): −0.72 log10 CFU/g sputum | presumptive S. aureus density, Day 1, Mean (EE population, 240 mg BID): 5.68 log10 CFU/g sputum | presumptive S. aureus density, Day 7, Mean (EE population, 240 mg BID): 4.96 log10 CFU/g sputum | presumptive S. aureus density, Day 14, Mean (EE population, 240 mg BID): 4.70 log10 CFU/g sputum | presumptive S. aureus density, Day 28, Mean (EE population, 240 mg BID): 5.42 log10 CFU/g sputum | presumptive S. aureus density, Change from Baseline to Day 28, Mean (EE population, 240 mg BID, Day 14): −0.98 log10 CFU/g sputum | presumptive S. aureus density, Change from Baseline to Day 28, Mean (EE population, 240 mg BID, Day 28): −0.38 log10 CFU/g sputum | presumptive S. aureus density, Change from Baseline to Day 7, Mean (EE population, 240 mg QD): −0.30 log10 CFU/g sputum | presumptive S. aureus density, Day 1, Mean (EE population, 240 mg QD): 5.64 log10 CFU/g sputum | presumptive S. aureus density, Day 7, Mean (EE population, 240 mg QD): 5.34 log10 CFU/g sputum | presumptive S. aureus density, Day 14, Mean (EE population, 240 mg QD): 5.14 log10 CFU/g sputum | presumptive S. aureus density, Day 28, Mean (EE population, 240 mg QD): 4.56 log10 CFU/g sputum | presumptive S. aureus density, Change from Baseline to Day 28, Mean (EE population, 240 mg QD, Day 14): −0.50 log10 CFU/g sputum | presumptive S. aureus density, Change from Baseline to Day 28, Mean (EE population, 240 mg QD, Day 28): −1.08 log10 CFU/g sputum | presumptive S. aureus density, Change from Baseline to Day 7, Mean [1]: −0.47 log10 CFU/g sputum | presumptive S. aureus density, Day 1, Mean [1]: 5.65 log10 CFU/g sputum | presumptive S. aureus density, Day 7, Mean [1]: 5.18 log10 CFU/g sputum | presumptive S. aureus density, Day 14, Mean [1]: 4.96 log10 CFU/g sputum | presumptive S. aureus density, Day 28, Mean [1]: 4.89 log10 CFU/g sputum | presumptive S. aureus density, Change from Baseline to Day 28, Mean (EE population, Combined 240 mg QD and BID, Day 14): −0.69 log10 CFU/g sputum | presumptive S. aureus density, Change from Baseline to Day 28, Mean (EE population, Combined 240 mg QD and BID, Day 28): −0.81 log10 CFU/g sputum | presumptive S. aureus density, Change from Baseline to Day 7, Mean [2]: −0.71 log10 CFU/g sputum | presumptive S. aureus density, Day 1, Mean [2]: 5.68 log10 CFU/g sputum | presumptive S. aureus density, Day 7, Mean [2]: 4.97 log10 CFU/g sputum | presumptive S. aureus density, Day 14, Mean [2]: 5.08 log10 CFU/g sputum | presumptive S. aureus density, Day 28, Mean [2]: 5.04 log10 CFU/g sputum | presumptive S. aureus density, Change from Baseline to Day 28, Mean (EE population, Combined Levofloxacin, Day 14): −0.60 log10 CFU/g sputum | presumptive S. aureus density, Change from Baseline to Day 28, Mean (EE population, Combined Levofloxacin, Day 28): −0.67 log10 CFU/g sputum | presumptive S. aureus density, Change from Baseline to Day 7, Mean [3]: −1.14 log10 CFU/g sputum | presumptive S. aureus density, Day 1, Mean [3]: 5.89 log10 CFU/g sputum | presumptive S. aureus density, Day 7, Mean [3]: 4.75 log10 CFU/g sputum | presumptive S. aureus density, Day 14, Mean [3]: 5.48 log10 CFU/g sputum | presumptive S. aureus density, Day 28, Mean [3]: 5.49 log10 CFU/g sputum | presumptive S. aureus density, Change from Baseline to Day 28, Mean (Table 21 (EE population), 120 mg QD, Day 14): −0.41 log10 CFU/g sputum | presumptive S. aureus density, Change from Baseline to Day 28, Mean (Table 21 (EE population), 120 mg QD, Day 28): −0.41 log10 CFU/g sputum | presumptive S. aureus density, Change from Baseline to Day 7, Mean [4]: −0.66 log10 CFU/g sputum | presumptive S. aureus density, Day 1, Mean [4]: 5.51 log10 CFU/g sputum | presumptive S. aureus density, Day 7, Mean [4]: 4.65 log10 CFU/g sputum | presumptive S. aureus density, Day 14, Mean [4]: 4.32 log10 CFU/g sputum | presumptive S. aureus density, Day 28, Mean [4]: 4.95 log10 CFU/g sputum | presumptive S. aureus density, Change from Baseline to Day 28, Mean (Table 21 (EE population), 240 mg BID, Day 14): −0.99 log10 CFU/g sputum | presumptive S. aureus density, Change from Baseline to Day 28, Mean (Table 21 (EE population), 240 mg BID, Day 28): −0.44 log10 CFU/g sputum | presumptive S. aureus density, Change from Baseline to Day 7, Mean [5]: −0.40 log10 CFU/g sputum | presumptive S. aureus density, Day 1, Mean [5]: 5.63 log10 CFU/g sputum | presumptive S. aureus density, Day 7, Mean [5]: 5.23 log10 CFU/g sputum | presumptive S. aureus density, Day 14, Mean [5]: 4.97 log10 CFU/g sputum | presumptive S. aureus density, Day 28, Mean [5]: 4.48 log10 CFU/g sputum | presumptive S. aureus density, Change from Baseline to Day 28, Mean (Table 21 (EE population), 240 mg QD, Day 14): −0.66 log10 CFU/g sputum | presumptive S. aureus density, Change from Baseline to Day 28, Mean (Table 21 (EE population), 240 mg QD, Day 28): −1.15 log10 CFU/g sputum | presumptive S. aureus density, Change from Baseline to Day 7, Mean [6]: −0.51 log10 CFU/g sputum | presumptive S. aureus density, Day 1, Mean [6]: 5.58 log10 CFU/g sputum | presumptive S. aureus density, Day 7, Mean [6]: 4.99 log10 CFU/g sputum | presumptive S. aureus density, Day 14, Mean [6]: 4.70 log10 CFU/g sputum | presumptive S. aureus density, Day 28, Mean [6]: 4.66 log10 CFU/g sputum | presumptive S. aureus density, Change from Baseline to Day 28, Mean (Table 21 (EE population), Combined 240 mg QD and BID, Day 14): −0.80 log10 CFU/g sputum | presumptive S. aureus density, Change from Baseline to Day 28, Mean (Table 21 (EE population), Combined 240 mg QD and BID, Day 28): −0.87 log10 CFU/g sputum | presumptive S. aureus density, Change from Baseline to Day 7, Mean [7]: −0.71 log10 CFU/g sputum | presumptive S. aureus density, Day 1, Mean [7]: 5.68 log10 CFU/g sputum | presumptive S. aureus density, Day 7, Mean [7]: 4.91 log10 CFU/g sputum | presumptive S. aureus density, Day 14, Mean [7]: 4.95 log10 CFU/g sputum | presumptive S. aureus density, Day 28, Mean [7]: 4.93 log10 CFU/g sputum | presumptive S. aureus density, Change from Baseline to Day 28, Mean (Table 21 (EE population), Combined Levofloxacin, Day 14): −0.68 log10 CFU/g sputum | presumptive S. aureus density, Change from Baseline to Day 28, Mean (Table 21 (EE population), Combined Levofloxacin, Day 28): −0.72 log10 CFU/g sputum
